Laboratory results: publication PMC7380166, “How to Study the Metabolism of New Psychoactive Substances for the Purpose of Toxicological Screenings—A Follow-Up Study Comparing Pooled Human Liver S9, HepaRG Cells, and Zebrafish Larvae” (Frontiers in Chemistry, 2020)

Key:
zebrafish larvae = assay: In vivo maximum-tolerated concentration (MTC) study in zebrafish larvae; parameters: species or system zebrafish (Danio rerio); conditions: for Survival rate: 24-h treatment, fifteen larvae
In short: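 AB wild-type larvae, one per well in Danieau's medium (pH 7.1–7.3) at 28°C, exposed from 4 dpf for 24 h to 0, 0.01, 0.1, 1, 10, 50 or 100 μM with 1% DMSO.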

monooxygenases = assay: Monooxygenases activity screening, summary over isozymes; type: in vitro ADME, human; conditions: single-enzyme incubations, 25 μM
Protocol: According to an established protocol (Wagmann et al., [2016]), the final volume per reaction tube was 50 μl with a final 4F-MDMB-BINACA concentration of 25 μM and enzyme concentrations of 50 pmol/ml for CYP1A2, CYP2A6, CYP2B6, CYP2C8, CYP2C9, CYP2C19, CYP2D6, CYP2E1, CYP3A4, and CYP3A5, respectively, or 0.25 mg protein/ml for FMO3. Furthermore, the reaction mixture contained 90 mM phosphate buffer (pH 7.4), superoxide dismutase (200 U/ml), isocitrate (5 mM), MgCl2 (5 mM), isocitrate dehydrogenase (0.5 U/ml), and NADP^+ (1.2 mM). The phosphate buffer was replaced with Tris buffer (90 mM) for incubations with CYP2A6 and CYP2C9 according to the manufacturer's recommendation. All incubations were performed at 37°C for 30 min and terminated by adding 50 μl of ice-cold acetonitrile. Afterwards, the mixtures were centrifuged at 18,407 × g for 5 min, 70 μl of the supernatants was transferred into autosampler vials, and 1 μl was injected onto the LC-HRMS/MS system. Positive control incubations were performed with pHLM (1 mg microsomal protein/ml), and negative controls without enzyme were prepared to identify non-metabolically formed compounds. All incubations were done in duplicate.

[1] = [2019], cited from earlier work

`COC(=O)C(NC(=O)c1nn(CCCCF)c2ccccc12)C(C)(C)C` (centres unmarked) [4F-MDMB-BINACA, methyl 2-[1-(4-fluorobutyl)-1H-indazole-3-carbonyl]amino-3,3-dimethylbutanoate] showed a Survival rate (zebrafish larvae; 0.01 μM, larvae 4 dpf) of 100%, a Survival rate (zebrafish larvae; 0.1 μM, larvae 4 dpf) of 100% and a Survival rate (zebrafish larvae; 1 μM, larvae 4 dpf) of 100%. The Survival rate (zebrafish larvae; 10 μM, larvae 4 dpf) was 100%, the Survival rate (zebrafish larvae; 50 μM, larvae 4 dpf) was 73% and the Survival rate (zebrafish larvae; 100 μM, larvae 4 dpf) was 53%. The “Concentration considered non-toxic for zebrafish larvae (4 dpf)” value (zebrafish larvae; 24 h exposure via medium) was 25 µM, the Malformations (zebrafish larvae; up to 100 μM, larvae 4 dpf, 24 h) was “No malformations” and the “Monooxygenases involved in the metabolic phase I reactions” value (monooxygenases) was “CYP1A2, CYP2C8, CYP2C19, CYP3A4, and CYP3A5”. The “Number of metabolites identified in human urine samples” value ([1]; 17 human urine samples, conjugate cleavage, ref Haschimi et al.) was 13 and the “Number of metabolites identified in blood and urine samples” value ([1]; four blood and four urine samples, ref Krotulski et al.) was “nine”.
